According to a melting point compilation (Tetko et al.; mined from patent text by program, amines drawn as free bases though some values may be those of a salt):

Row | melting point [°C] | Structure (SMILES)
1 | 181 to 183 | CC1=C(C(=O)O)C(C)(C)CCC1=O
2 | 124 to 126 | C=CCCO[C@@H](Cc1ccc(OCCc2nc(-c3ccc(C(C)C)cc3)oc2C)c2ccsc12)C(=O)O
3 | 104 to 106 | COC(=O)c1ccc(S(C)(=O)=O)c(C2=NOCC2)c1C
4 | 155 | COc1cc(-c2cccc(Cl)c2)c2cc(C(O)(c3ccc(Cl)cc3)c3nncn3C)ccc2n1 (stereo not drawn)
5 | 250 | Cc1c(F)c(F)c(N)c2c(=O)c(C(=O)O)cn(-c3nc(N)c(F)cc3F)c12
6 | 150 to 151 | CC(C)(C)OC(=O)N1CCN(c2cccc3cc[nH]c23)CC1
7 | 251 to 252 | CNC(=O)Cc1c(-c2ccc(C)cc2)nc2n(C)c3ccccc3n12
8 | 116 | CCCN(CCCCc1c[nH]c2ccc(F)cc12)C1COc2c(C(N)=O)ccc(F)c2C1 (stereo not drawn)
9 | 97 to 100 | CC(=CCc1c(C)nc(N)nc1Cl)c1cc(Cl)ccc1Cl
10 | 194 to 196 | COc1cc(OC)c2c3c(oc2c1)CC(C(=O)O)CC3 (stereo not drawn)
11 | 190 to 192 | COCc1c(C(=O)OC(CO)CO)ncc2[nH]c3ccc(OCc4ccccc4)cc3c12
12 | 123 to 124 | CCOC(=O)c1c(C(=O)OCC)c(-c2ccc(OC(C)C)c(OC(C)C)c2)c2cc3c(cc2c1O)OCO3
13 | 87.6 to 88.9 | CCCNC(=O)c1ccccc1
14 | 164 to 165 | CON=C(C(=O)O)c1nc(NC=O)c(Cl)cc1Cl
15 | 210 to 215 | Cc1nc(N2CCN(CC3CC3(F)F)C2=O)sc1C(=O)O (stereo not drawn)
16 | 155 to 158 | CC(C(=O)n1c(=O)oc2ccccc21)C(O)c1ccccc1 (stereo not drawn)
17 | 133 to 134 | CSc1ccc(F)cc1C(=O)Cn1cccc1
18 | 170 to 174 | O=C(CN1CCC(Cc2ccccc2)CC1)Nc1ccc2[nH]ncc2c1
19 | 161 to 163 | CC(=O)Nc1cccc(C#Cc2ccc([C@@H]3CC[C@@H]4CCCCN43)cc2)c1 (relative stereo)
20 | 199 to 200 | c1ccc(-c2nnc(NCC3CC3)cc2-c2ccncc2)cc1
21 | 170 to 180 | COc1cc(C(O)CN(c2nc3ccccc3[nH]2)C(C)CCn2cnc3ccccc32)ccc1OCc1ccccc1 (stereo not drawn)
22 | 141 to 143 | CCC(CC)Nc1cc(C(=O)OC)ccc1N1C(=O)CCC1(CO)CCO (stereo not drawn)
23 | 260 to 262 | COc1ccc(OC)c(Nc2ncc(C(=O)O)c(=O)[nH]2)c1

Row | melting point [°C] | Structure (SMILES)
24 | 67 to 68 | CCOC(CI)=Nc1ccc(Cl)cc1C(=O)c1ccccc1
25 | 155 to 156 | CCOC(=O)c1cn(CCF)c2c(F)c(C(C)=O)c(F)cc2c1=O
26 | 171 to 173 | O=c1c(-c2cccc(C(F)(F)F)c2)c[nH]n1-c1ccc(F)cc1
27 | > 250 | CNC(=O)c1cccc2cccc(NC(=O)c3ccc(F)c(F)c3)c12
28 | 207 to 209 | CCCNC(=O)CN1C(=O)C2(COc3cc4c(cc32)CCO4)c2ccccc21 (stereo not drawn)
29 | 122 | CCC1=NNC(C)=C(C(=O)OC(C)(C)C)C1c1cccc([N+](=O)[O-])c1 (stereo not drawn)
30 | 178 to 182 | COc1cc(OCCCO)c(C=CC(=O)c2ccc(S(=O)(=O)Nc3cc(C)on3)cc2)cc1-c1cccs1
31 | 238 | N#Cc1c(N2CCN(C(=O)c3cccs3)CC2)c2cscc2n(Cc2ccc(F)cc2)c1=O
32 | 131 | COC(=O)CCOc1ccccc1CNC(=O)C1Cc2ccccc2N1S(=O)(=O)c1ccc(-c2cccc(C(F)(F)F)c2)cc1 (stereo not drawn)
33 | 98 to 99 | CC(C)(C)OC(=O)NCCCCC(=O)N1CCC(c2[nH]nc3c2C(=O)c2c(NC(=O)NN4CCOCC4)cccc2-3)CC1
34 | 134 to 140 | Cc1ccc(C(SCCN(C)CCCCN=C(NC#N)NCCSCc2csc(NC(=N)N)n2)c2ccccc2)cc1 (stereo not drawn)
35 | 224 to 227 | CC(=O)NN1CCC(c2ccc(-c3cccc(N)n3)cc2)CC1
36 | 158 to 161 | CCn1nc(OCC(=O)C(C)(C)C)c(-c2ccccc2)c1-c1ccc(S(C)(=O)=O)cc1
37 | 178 to 183 | N#Cc1cnn(-c2c(Cl)cc(C(F)(F)F)cc2Cl)c1C=CC(=O)NS(=O)(=O)Cc1ccccc1
38 | 150 | CCCCc1nc(SCC)c2ccccc2c1Cc1ccc(C(=O)O)cc1
39 | 149 to 155 | COc1ccc(-c2cnc3cc4cnn(Cc5ccccc5)c4cc3n2)cc1F
40 | 255 to 257 | O=C(Nc1cccc(S(=O)(=O)NC2(CO)CCCC2)c1)c1cnn2c(C3CC3)cc(-c3ccc(Cl)cc3)nc12
41 | 170 to 173 | c1cc(-n2ccnc2)nc(-n2cnc3cc(-c4ccoc4)ccc32)c1
42 | 174 to 175 | CS(=O)(=O)c1csc(CC(=O)C(=O)c2ccc(F)cc2)c1
43 | 245 to 255 | CCOC(OCC)N1C(=O)C(c2ncnc3cc(OCCOC)c(OC)cc23)c2cc(F)ccc21 (stereo not drawn)
44 | 236 to 237 | CCOC(=O)Cn1c(=O)c(=O)[nH]c2cc(C(F)(F)F)c(-n3ccc(C=O)c3)cc21
45 | 128 | CC(C)(C)OC(=O)[C@@H]1CS[C@H](c2ccccc2-c2ccccc2)N1C(=O)CNC(=O)Nc1cccc(CC(=O)O)c1
46 | 229 to 231 | CCC(=O)c1cc(Cl)c(Cl)c2c1OCC(C(=O)O)O2 (stereo not drawn)

Row | melting point [°C] | Structure (SMILES)
47 | 86 to 87 | COC(=O)[C@H](CC(C)C)NC(=O)OCC1c2ccccc2-c2ccccc21
48 | 192 to 193 | Nc1nc(NCCN2CCN(C(c3ccccc3)c3ccccc3)CC2)nc(-c2cc(Cl)ccc2Cl)n1
49 | 135 to 136 | O=C(c1cc(-c2ccc(Cl)cc2)c(N2CCOCC2)s1)c1cc(-c2ccc(Cl)cc2)c(N2CCOCC2)s1
50 | 159 to 160 | COCc1cc2c(s1)CCc1cc(=O)n(-c3ccc(Cl)cc3)nc1-2
51 | 132 | O=C(NCC#CCN1CCCC1)N1c2ccccc2-c2noc3c2C1CCC3 (stereo not drawn)
52 | 163 to 164 | CC(C)OCCNC(=O)c1n[nH]cc1NC(=O)c1ccccn1
53 | 175 | Cc1nn(C)c(Cl)c1C(=O)Nc1cccc2c1CCC2(C)C
54 | 185 to 188 | COc1ccc(-c2ccc(NC(=O)CCc3ccc(CN4CCCC4)cc3)cc2)cc1
55 | 104 to 106 | COC(=O)c1cc(C)cnc1C1=NC(C)(C(C)C)C(=O)N1C(=O)c1ccccc1 (stereo not drawn)
56 | 183 to 185 | Nc1ccc(NCCCNc2cccc3c2C(=O)c2ccccc2C3=O)cc1
57 | 183 to 186 | CCc1nc2c(N)nc3ccccc3c2n1CCCCSC
58 | 150 to 151 | COc1cc(Cl)cn2cc(-c3ccc(Cl)cc3)nc12
59 | 267 | O=C(Nc1cnns1)c1ccccc1
60 | 130 to 132 | CCc1nc(/C=C/c2cn(-c3ccccc3)nc2OCc2ccc(OCc3nc(-c4cccc(CO)c4)oc3C)c(OC)c2)cs1
61 | 202 to 203 | COC(=O)c1nn(Cc2ccccc2)c2c1CCc1cc(OCc3cncnc3)ccc1-2
62 | 107 | N#CC1CCc2ccc([N+](=O)[O-])cc2C(=O)C1 (stereo not drawn)
63 | 289 to 290 | COc1ccc(-c2ccc3n[nH]c(=O)n3n2)cc1F
64 | 163 to 165 | O=c1c2cnc(-c3ccccc3)nc2sn1CCN1CCOCC1
65 | 191 to 192 | COc1cc2c(cc1OC)C(C(CO)CO)N(C(=O)Nc1ccccc1)CC2 (stereo not drawn)
66 | 98 to 99 | O=[N+]([O-])c1cn2c(n1)OC[C@@H](OCc1ccc(-c3nc4cc(OC(F)(F)F)ccc4[nH]3)cc1)C2
67 | 50 | COC(=O)CCCCOc1ccc(CNC(=O)C2Cc3ccccc3N2S(=O)(=O)c2ccc(-c3cccc(C(F)(F)F)c3)cc2)cc1 (stereo not drawn)
68 | 109 to 127 | COc1cc2c(cc1Nc1ncc(Cl)c(N[C@H]3[C@@H](C(N)=O)[C@@H]4C=C[C@H]3C4)n1)CCN(CC(=O)N(C)C)CC2
69 | 165 to 166 | COc1ccc(-n2nnc(-c3ccc(C(F)(F)F)cc3F)c2N)cc1

Row | melting point [°C] | Structure (SMILES)
70 | 64 to 66 | CCN(CC)C(=O)c1ccoc1-c1ccc(Cl)cc1
71 | 106 to 110 | O=C(CN(CCOCc1ccccc1)Cc1ccccc1)Nc1ccc2c3c(nn2CCN(CCOCc2ccccc2)Cc2ccccc2)-c2cc(O)ccc2Oc13
72 | 103 to 105 | CN(C)C(=O)CCc1ccc(OCCN(C)c2nc3ccccc3o2)cc1
73 | 261 | CCOC(=O)C1=C(N)NC2=C(C(=O)CCC2)C1c1cc(OC)c(OC)cc1[N+](=O)[O-] (stereo not drawn)
74 | 83 to 86 | CCOC(=O)CNC(=O)N(C(=O)NCC(=O)OCC)c1ccc(C(=O)/C=C/c2cc(OC)c(OC)c(-c3cccs3)c2)cc1
75 | 146 | CNCCOc1ccc2ccc(NC(=O)c3ccc(OC)cc3)nc2n1
76 | 49 to 50 | C#CCC1(C2CCC3C(O[Si](C)(C)C(C)(C)C)CCCC32C)CC1 (stereo not drawn)
77 | 147 to 148 | CCCc1nn(-c2ccc(C(F)(F)F)cn2)cc1CCCCOc1cc(CC(=O)O)ccc1OC
78 | 150 to 152 | CS(=O)(=O)c1ccc(-c2cc(C(=O)CCCO[N+](=O)[O-])nn2-c2ccc(Br)cc2)cc1
79 | 93 | CCCCCCCCC1(C)Cc2ccc(-c3nc4cc(CCCC)ccc4o3)cc2C1=O (stereo not drawn)
80 | 170 to 171 | Cc1cccc(N(c2ccccc2)c2ccc(N(c3ccccc3)c3cccc(C)c3)cc2)c1
81 | 138 | COc1cccc(C(=O)NN=C2CCc3ccccc3C2)c1C
82 | 86 to 89 | COC1C(O)C(CO)OC1n1cnc2c(NC3CC=CCC3c3cccs3)ncnc21 (stereo not drawn)
83 | 68 to 69 | C[N+](C)([O-])CC#CC1=Cc2ccccc2Sc2ccc(Cl)cc21
84 | 188 to 190 | CNC(=S)N1CCc2nc(N)sc2C1
85 | 78 to 80 | Nc1cc(Br)cc(Br)c1N
86 | 237 to 240 | N#Cc1cccc(-c2nc(-c3ccc(C(N)=O)cc3)cc3cccnc23)c1
87 | 161 | O=C(NCCO)c1ccc(OCC2(O)CCN(Cc3ccccc3)CC2)cc1
88 | 52 to 53 | CCOC(=O)C(C)Oc1ncn(-c2ccc(OC(F)(F)F)cc2)n1 (stereo not drawn)
89 | 137 to 138 | COC(=O)c1cccc(C2=NC(C)(C)Cc3cc(OC)c4c(c32)CC(C)(C)O4)c1

Row | Structure (SMILES) | melting point [°C]
90 | OC1C2=C(CCN1CCCCc1c[nH]c3ccccc13)c1ccccc1C2 (stereo not drawn) | 205 to 208
91 | COc1ccc2[nH]cc(CCN3CCC(c4ccc(C)cc4)CC3)c2c1 | 131 to 133
92 | CC(C)Oc1cccc(C2(C)CN(C)CCC2O)c1 (stereo not drawn) | 75 to 76
93 | CN1CC(C(=O)NCc2cccnc2)CC2c3cccc4c3c(cn4C)CC21 (stereo not drawn) | 185 to 187
